In patent publication US11013745B2, “Triazolopyrimidine, triazolopyridine compounds, and the composition thereof for treating PRC2-mediated diseases” (SHANGHAI INSTITUTE OF MATERIA MEDICA, CHINESE ACADEMY OF …, priority 2017, dated 2021):

Assays:
PRC2 enzyme = PRC2 enzyme (Homo sapiens (Human), UniProt O75530); assay: PRC2 enzyme activity, TR-FRET method; assay type: biochemical
Method: The TR-FRET method was used to measure the PRC2 enzyme activity. First, the enzyme was mixed with compounds at different concentrations and incubated for 30 min at room temperature. The biotin-labeled histone H3 peptide substrate and the cofactor S-adenosylmethionine (SAM) were added to initiate the enzymatic reaction. After reaction was performed at room temperature for 4 hour, Acceptor and Donor were added and incubated for half an hour. The multifunctional microplate reader EnVision (Perkin Elmer Inc.) was used to detect the fluorescence signal. Data were analyzed using GraphPad Prism 5.0 software, and IC50 values were obtained.

Pfeiffer cells [1] = assay: Pfeiffer cell growth inhibition in a long term (11 days), CellTiter-Glo; assay type: cell-based, Human; conditions: Homo sapiens, 264 h, 11 days, read-out: Experiment on Pfeiffer cell growth inhibition in a long term (11 days IC50)
Method: Pfeiffer cells in exponential growth phase were seeded in a 24-well plate with a cell density of 1*10E5 cells/mL. Cells were treated on the same day with the compounds at different concentrations. At day 4 and day 7 of compound treatment, fresh media and compounds were changed. After treated with the compounds for 11 days, cell viability was measured using CellTiter-Glo reagent (Promega Corporation). The data was analyzed using GraphPad Prism 5.0 software and GI50 values were obtained.

Pfeiffer cells [2] = assay: Growth inhibition of Pfeiffer cells in a long term (14 days), CellTiter-Glo; assay type: cell-based, Human; conditions: Homo sapiens, 336 h, 14 days, read-out: Pfeiffer (14 days) IC50
Method: In a CO2 cell incubator (37° C., 5% CO2), Human diffuse large B-cell lymphoma (DLBCL) cell line, pfeiffer (obtained from ATCC, CRL-2632) were incubated with RPMI 1640 medium (Gibco, purchased from Life Technologies, 22400-089) containing 10% fetal bovine serum (Gibco, purchased from Life Technologies, 10099-141) and 1% antibiotics (penicillin and streptomycin, purchased from Life Technologies, 10378016). […] After seeding the cells, they were placed in a CO2 incubator and allowed to stand for 1 hour. In a 24-well plate containing cells, 2 μL of three-fold gradient of the compounds at 9 different concentrations or DMSO were added to each well, such that the final concentration of the compounds was 0.003-20 μM or 0.3-2000 nM, and the final concentration of DMSO was 0.2%. At day 4, day 7, and day 11 of compound treatment, the fresh medium and compounds were changed, and the cell density of the DMSO control well was diluted to 2*10E5 cells/mL. The cell dilution ratio for other compound wells was the same as that of the DMSO control well. Cell viability was determined by using CellTiter-Glo reagent (purchased from Promega Inc., G7572): cells treated with the compounds for 14 days were transferred to a white 384-well plate (OptiPlate-384, purchased from PerkinElmer, 6007299) at 40 μL/well, an equal volume of CellTiter-Glo reagent was further added. After incubating at room temperature for 10 min, the cold luminescence signal was detected with a multifunctional microplate reader EnVision (PerkinElmer) at a wavelength of 400 to 700 nm. Data were analyzed using GraphPad Prism 5.0 software, and IC50 values were obtained.

Karpas-422 cells = assay: Growth inhibition of Karpas-422 cells in a long term (11 days), CellTiter-Glo; assay type: cell-based, Human; conditions: Homo sapiens, 264 h; Karpas-422, 11 days; read-out: Karpas-422 (11 days) IC50
SU-DHL-4 cells = assay: Growth inhibition of SU-DHL-4 cells in a long term (11 days), CellTiter-Glo; assay type: cell-based, Human; conditions: Homo sapiens, 264 h; SU-DHL-4, 11 days; read-out: SU-DHL-4 (11 days) IC50
[3] = Liver microsomal stability (human); assay type: in vitro ADME; conditions: for Clearance rate in vivo Clint In Vivo Extpl / Intrinsic clearance rate in vivo Clint In Vitro / Liver clearance rate Clint Hep In Vivo Extpl: human liver microsomes; for half-life / bioavailability: human, liver microsomes, pH 7.4, human liver microsomes; for half-life: read-out: Half life T-half; for bioavailability: read-out: Metabolic bioavailability MF %
Method: (§1) 1. JANUS and temperature control device was turned on. After being initialized, the pipes were flushed until there was no air bubble in the pipes.
(§2) 2. Preparation of buffers used for the experiment
(§3) Preparation of Tris pH 7.4 buffer (0.1 M): 12.12 g of Tris was dissolved in 1000 mL of H2O, the resulting solution was adjusted to pH 7.4 with 2N HCl, aliquoted at 50 mL per tube, and stored at −20° C.
(§4) Preparation of H2O/0.1% BSA buffer: 200 μL of 25% BSA was added to 50 mL of H2O.
(§5) Preparation of VIVID stock solution: 1 mg of VIVID was dissolved in 1 mL of acetonitrile, aliquoted at 50 μL per tube, and stored at −20° C.
(§6) Preparation of MgCl2 solution (100 mM): 1.016 g of MgCl2 was dissolved in 50 mL Tris pH 7.4 buffer, and aliquoted at 1 mL per tube, and stored at −20° C.
(§7) Preparation of NADPH solution (10 mM): 355 mg of NADPH was dissolved in 42.6 mL of Tris pH 7.4 buffer, aliquoted at 1.8 mL per tube, and stored at −20° C.
(§8) Preparation of Blank control: 7.937 mL of Tris, 163 μL of RLM, 450 μL of MgCl2 solution, 450 μL of NADPH solution and 9 mL of methanol were mixed uniformly, aliquoted at 1 mL per tube, and stored at −20° C.
(§9) 3. Preparation of Compound Working Solution
(§10) Dilution step 1:10 μL of compound stock solution was added to 90 μL of DMSO=1 mM stock solution.
(§11) Dilution step 2: 2 μL of 1 mM stock solution was added to 1 mL of H2O/0.1%6 BSA buffer=[…] working solution.
(§12) Dilution step 3: 245 μL of the working solution was added to a 96-well compound plate and added with 5 μL of VIVID stock solution.
(§13) The 96-well compound plate was shaken on a shaker for 5 min.
(§14) 4. The STM in the JANUS in the computer was open to run the EXCEL file, and the JANUS program was operated and run by following the instructions in the EXCEL file.
(§15) 5. After the JANUS program was finished, acetonitrile/water 50:50 (V/V) was added to column 20 of the 384-well black plate, and blank control was added to column 21 of the 384-well black plate.
(§16) 6. the plate (420 nm-465 nm) was read on a microplate reader to determine the VIVID fluorescence intensity.
(§17) 7. After the plate was sealed, shaken and centrifuged, the sample plate was subjected to the LC/MS instrument for sample analysis.
(§18) A profile of the logarithmic value of the remaining rate of the drug in the incubation system versus the incubation time was plotted, and the slope k was obtained by linear regression. The intrinsic clearance rate in vivo (Clint, mL/min/g) value, the clearance rate in vivo (Cl, mL)/min), liver clearance (Clhep, mL/min) and metabolic bioavailability (% MF) were predicted according to the following equations: […]

[4] = Liver microsomal stability (rat); assay type: in vitro ADME; conditions: for Clearance rate in vivo Clint In Vivo Extpl / Intrinsic clearance rate in vivo Clint In Vitro / Liver clearance rate Clint Hep In Vivo Extpl / Metabolic bioavailability MF %: rat liver microsomes; for half-life: rat, liver microsomes, pH 7.4, rat liver microsomes, read-out: Half life T-half
Method: as §1, §2, §3, §4, §5, §6, §7, §8, §9, §10, §11, §12, §13, §14, §15, §16, §17, §18

[5] = Liver microsomal stability (mouse); assay type: in vitro ADME; conditions: for Clearance rate in vivo Clint In Vivo Extpl / Intrinsic clearance rate in vivo Clint In Vitro / Liver clearance rate Clint Hep In Vivo Extpl / Metabolic bioavailability MF %: mouse liver microsomes; for half-life: mouse, liver microsomes, pH 7.4, mouse liver microsomes, read-out: Half life T-half
[6] = Oral pharmacokinetics in rats; assay type: in vivo; conditions: male, SD, plasma, rat, intragastric, 3 mg/kg; for AUC(0-inf): extrapolated to infinity, read-out: AUCINF_obs; for MRT inf: read-out: Average residence time MRTINF_obs; for half-life: read-out: Half life T1/2 (converted); for Cmax: read-out: Peak concentration Cmax
Method: 1. Healthy male SD rats were used as test animals, EED226, […]-07 (3 mg/kg) were administered intragastrically, and the drug concentrations in rat plasma were determined by LC/MS/MS method at different time points after drug administration. The pharmacokinetic behavior of the compounds of the present invention in rats was studied, and the pharmacokinetic properties were evaluated. 2. The test animals were healthy adult male SD rats, with 3 rats in each group, purchased from Shanghai Xipuer-Bikai Laboratory Animal Limited Company. 3. Drug preparation: Compounds EED226, […] were dissolved in DMSO/0.5% HPMC (5/95, v/v) for preparation. The compound SL-ZYE-07 was dissolved in 0.5% HPMC (containing 0.5% Tween 80), vortexed, and sonicated to disperse the solid matter uniformly to obtain a pale white suspension. 4, Operation: EED226, […]-07 were administered to rats by intragastric administration (3 mg/kg), 45 μL of blood was taken through the femoral vein at 0.25, 0.5, 1, 2, 4, 8, 24 hour after administration, and centrifuged in a heparinized centrifuge tube for 5 min, and the plasma samples were separated for analysis. The contents of test compounds in rat plasma after intragastric administration of different compounds were determined by Liquid chromatography-mass spectrometry (LC-MS/MS).

PRC2 enzyme, sequence (O75530 whole entry): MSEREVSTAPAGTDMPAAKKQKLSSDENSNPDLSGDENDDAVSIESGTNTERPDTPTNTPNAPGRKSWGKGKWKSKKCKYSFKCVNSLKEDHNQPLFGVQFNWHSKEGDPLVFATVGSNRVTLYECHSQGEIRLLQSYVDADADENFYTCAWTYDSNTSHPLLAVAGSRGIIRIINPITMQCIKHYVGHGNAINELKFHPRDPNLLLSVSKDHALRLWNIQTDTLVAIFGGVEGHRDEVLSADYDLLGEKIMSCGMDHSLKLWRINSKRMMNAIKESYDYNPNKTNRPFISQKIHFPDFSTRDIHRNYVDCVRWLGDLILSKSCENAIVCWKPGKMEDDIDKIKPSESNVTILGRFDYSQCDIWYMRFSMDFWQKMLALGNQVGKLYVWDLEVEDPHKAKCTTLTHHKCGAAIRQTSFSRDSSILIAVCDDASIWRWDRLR
PRC2 enzyme, sequence (Q15910 whole entry partner): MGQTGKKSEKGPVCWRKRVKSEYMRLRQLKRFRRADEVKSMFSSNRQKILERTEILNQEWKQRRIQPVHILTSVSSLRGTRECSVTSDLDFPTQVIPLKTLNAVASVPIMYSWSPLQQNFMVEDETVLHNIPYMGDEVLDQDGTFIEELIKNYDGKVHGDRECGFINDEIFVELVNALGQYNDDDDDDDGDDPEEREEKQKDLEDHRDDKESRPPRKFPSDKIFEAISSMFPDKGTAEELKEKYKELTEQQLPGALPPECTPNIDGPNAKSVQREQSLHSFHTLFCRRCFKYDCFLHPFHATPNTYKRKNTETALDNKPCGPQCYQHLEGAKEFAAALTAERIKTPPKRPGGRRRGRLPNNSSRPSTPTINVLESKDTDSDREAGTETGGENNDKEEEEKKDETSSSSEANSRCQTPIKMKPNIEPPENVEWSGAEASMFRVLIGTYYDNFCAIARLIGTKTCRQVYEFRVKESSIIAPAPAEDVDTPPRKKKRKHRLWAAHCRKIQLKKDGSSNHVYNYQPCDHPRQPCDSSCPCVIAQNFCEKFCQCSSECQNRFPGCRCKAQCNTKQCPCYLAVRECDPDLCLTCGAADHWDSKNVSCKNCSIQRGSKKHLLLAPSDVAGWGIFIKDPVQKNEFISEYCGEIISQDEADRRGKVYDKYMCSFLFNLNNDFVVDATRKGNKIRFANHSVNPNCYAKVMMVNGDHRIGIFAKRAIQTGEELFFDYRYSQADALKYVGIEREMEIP
PRC2 enzyme, sequence (Q15022 whole entry partner): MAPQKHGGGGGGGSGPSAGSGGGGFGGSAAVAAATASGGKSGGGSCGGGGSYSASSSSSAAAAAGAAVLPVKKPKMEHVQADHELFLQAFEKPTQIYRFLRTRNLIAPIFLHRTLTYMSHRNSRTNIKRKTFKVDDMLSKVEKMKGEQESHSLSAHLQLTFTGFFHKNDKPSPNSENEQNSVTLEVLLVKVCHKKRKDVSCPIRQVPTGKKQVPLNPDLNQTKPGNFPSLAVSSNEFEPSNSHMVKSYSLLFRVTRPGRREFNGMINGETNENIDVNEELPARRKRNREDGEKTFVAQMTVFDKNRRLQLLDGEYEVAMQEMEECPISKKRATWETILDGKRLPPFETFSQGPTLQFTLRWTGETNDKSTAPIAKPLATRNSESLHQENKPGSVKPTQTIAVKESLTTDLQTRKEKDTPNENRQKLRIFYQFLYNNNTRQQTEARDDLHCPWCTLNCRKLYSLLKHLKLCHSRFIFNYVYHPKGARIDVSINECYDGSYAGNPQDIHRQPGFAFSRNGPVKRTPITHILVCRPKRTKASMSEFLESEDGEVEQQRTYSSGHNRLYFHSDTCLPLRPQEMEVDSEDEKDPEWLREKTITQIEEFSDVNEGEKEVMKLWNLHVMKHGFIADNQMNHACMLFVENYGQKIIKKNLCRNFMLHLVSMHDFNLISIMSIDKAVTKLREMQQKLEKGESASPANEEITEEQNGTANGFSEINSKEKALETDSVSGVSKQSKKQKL

Row | Structure (SMILES) | IC50 (PRC2 enzyme) | IC50 (Pfeiffer cells [1]) | IC50 (Pfeiffer cells [2]) | IC50 (Karpas-422 cells) | IC50 (SU-DHL-4 cells) | Clearance rate in vivo Clint In Vivo Extpl [3] | Intrinsic clearance rate in vivo Clint In Vitro [3] | Liver clearance rate Clint Hep In Vivo Extpl [3] | half-life [3] | bioavailability [3] | Clearance rate in vivo Clint In Vivo Extpl [4] | Intrinsic clearance rate in vivo Clint In Vitro [4] | Liver clearance rate Clint Hep In Vivo Extpl [4] | Metabolic bioavailability MF % [4] | half-life [4] | Clearance rate in vivo Clint In Vivo Extpl [5] | Intrinsic clearance rate in vivo Clint In Vitro [5] | Liver clearance rate Clint Hep In Vivo Extpl [5] | Metabolic bioavailability MF % [5] | half-life [5] | also measured
1 | Fc1ccc2c(c1CNc1ncc(C3CCOCC3)c3nncn13)CCO2 [E-Y47] | 13 nM |  | 6 nM | 18 nM |  | 519 mL/min | 6.79 mL/min/gprot | 386 mL/min | 5.15 h | 74.3% | 6.79 mL/min | 15.1 mL/min/gprot | 5.07 mL/min | 74.7% | 2.32 h | 1.17 mL/min | 17.3 mL/min/gprot | 0.841 mL/min | 72.0% | 2.02 h | AUC(0-t) [6]: 7890 ± 2430 ng·h/mL; AUC(0-inf) [6]: 7900 ± 2440 ng·h/mL; MRT inf [6]: 4.92 ± 0.369 h; half-life [6]: 2.56 ± 0.302 h; Cmax [6]: 1300 ± 628 ng/mL
2 | CN1CCC(c2cnc(NCc3c(F)ccc4c3CCO4)n3cnnc23)=CC1=O [SL-E24] | 3.9 nM | 5.1 nM | 3 nM | 3.1 nM | 3 nM |  |  |  |  |  |  |  |  |  |  |  |  |  |  |  | 
3 | CCS(=O)(=O)N1CC=C(c2cnc(NCc3c(F)ccc4c3CCO4)n3cnnc23)CC1 [SL-ZYE-144] | 3.5 nM | 1.8 nM | 0.8 nM | 4 nM | 3 nM |  |  |  |  |  |  |  |  |  |  |  |  |  |  |  | 

The next lines start with results.

Row | IC50 (PRC2 enzyme) | IC50 (Pfeiffer cells [1]) | IC50 (Pfeiffer cells [2]) | IC50 (Karpas-422 cells) | IC50 (SU-DHL-4 cells) | Structure (SMILES) | Clearance rate in vivo Clint In Vivo Extpl [3] | Intrinsic clearance rate in vivo Clint In Vitro [3] | Liver clearance rate Clint Hep In Vivo Extpl [3] | half-life [3] | bioavailability [3] | Clearance rate in vivo Clint In Vivo Extpl [4] | Intrinsic clearance rate in vivo Clint In Vitro [4] | Liver clearance rate Clint Hep In Vivo Extpl [4] | Metabolic bioavailability MF % [4] | half-life [4] | Clearance rate in vivo Clint In Vivo Extpl [5] | Intrinsic clearance rate in vivo Clint In Vitro [5] | Liver clearance rate Clint Hep In Vivo Extpl [5] | Metabolic bioavailability MF % [5] | half-life [5] | also measured
4 | 5.6 nM | 1.9 nM | 0.7 nM | 7 nM | 3 nM | CC(=O)N1CC=C(c2cnc(NCc3c(F)ccc4c3CCO4)n3cnnc23)CC1 [E-Y15] | 1280 mL/min | 16.7 mL/min/gprot | 691 mL/min | 2.1 h | 54% | 64.7 mL/min | 144 mL/min/gprot | 15.3 mL/min | 23.6% | 0.243 h | 5.51 mL/min | 81.6 mL/min/gprot | 1.94 mL/min | 35.3% | 0.428 h | 
5 | 7.3 nM |  | 1 nM | 25 nM | 5 nM | Fc1ccc2c(c1CNc1ncc(C3=CCCOCC3)c3nncn13)CCO2 [SL-ZYE-07] |  |  |  |  |  |  |  |  |  |  |  |  |  |  |  | AUC(0-t) [6]: 891 ± 164 ng·h/mL; AUC(0-inf) [6]: 910 ± 174 ng·h/mL; MRT inf [6]: 4.71 ± 0.896 h; half-life [6]: 3.77 ± 1.69 h; Cmax [6]: 155 ± 34.8 ng/mL
